# Source: patent US20240091227A1, “Use Of 2-Phenyl-6-(1H-Imidazol-1-YL) Quinazoline For Treating Neurodegenerative Diseases, Preferably Alzheimer's Disease” (ROTTAPHARM BIOTECH S.R.L., priority 2019, published 2024)
# Several values for one entry are separate records, joined by “and”; a condition that tells them apart may be missing. Equal values may be shown once. Read-outs that look alike come from different tables or passages of the source.
# Key:
# [1] = tested on: Mice treated with scopolamine; assay: Novel object recognition in scopolamine-induced memory impairment; type: in vivo, mouse; details: scopolamine 1 mg/kg ip, CR4056 6 and 20 mg/kg os
# Description: FIG. 5 reports the results of Novel Object recognition test in the model of scopolamine-induced memory loss. Data presented as % of time spent on exploration of new and old object in testing phase. *p<0.05; **P<0.01; t student test (n=6).
# The novel object recognition test was used to evaluate cognitive function based on the ability of mice to recognize various object proposed in the arena test. During the training phase a pair of identical objects were placed in the cage test. 24 hours after the first phase, during the testing phase one of the two object was replaced by a new different one. Time of exploration of each object was recorded in training and testing phase. The typical approach of mice was a similar exploration of the objects in training phase and a preference for the new object during the testing phase. The administration of substances that can worsen cognitive performance (i.e., scopolamine) caused the deletion of reminder of the old object and an equal exploration of 2 different objects. Scopolamine 1 mg/kg was administered ip 20 minutes before the training, whereas CR4056 6 and 20 mg/kg was administered os 40 minutes before the training.
# [2] = Brain penetration: plasma and brain levels by LC/MS/MS after oral administration; type: in vivo, rat; details: 30 mg/kg PO, fasted; for concentration at 1 h / Kp at 1 h: male, Sprague Dawley, rat, po, 30 mg/kg; for Kp at 1 h: brain/plasma
# Description: CR 4056 was determined in rat plasma and in rat brain and plasma using a LC/MS/MS method. Male Sprague Dawley rats, Harlan, were treated orally with a CR 4056 suspension (Methocel 0.5%) at the dose of 30 mg/kg. Oral administration was performed by gastric gavage to 3 animals per group (5 ml/kg). The compound was detected in plasma and in brain 1 hour after the treatment.
# Each rat brain was weighted and cut in half. Each cerebral hemisphere was weighted and homogenized with two different methodologies. One was liquidization by Ultra turrax tube drive (IKA), adding an aliquot of buffer solution (10 mM ammonium formate pH 3.5) three times the weight of the hemisphere. Then 30 μl of the extract solution were added to 0.25 ml of methanol in a 1.5 ml eppendorf tube, vortex-mixed and centrifugated for 5 min at 13500 rpm at 4° C. the supernatant was transferred to a 96-deep well plates 2 mL round (Axygen) and injected into the LC/MS/MS system. The second one was cryogenic grinding with Mikro Dismembrator (Sartorius). Each cerebral hemisphere was weighted, put in a 20 mL teflon vessel with a steel sphere (7.85 g/ml dia 10 mm) and frozen by immersion in liquid nitrogen for 5 minutes. The deep frozen brain was ground with Mikro Dismembrator at 2500 rpm for 30 sec, the freezing/grinding cycle was repeated twice. A portion of powder was accurately weighted (ca. 10 mg) in a 1.5 ml eppendorf tube, 0.25 ml of methanol were then added. After vortex-mixing and centrifugation for 5 min at 13500 rpm at 4° C., the supernatant was placed in a 96-deep well plates 2 mL round (Axygen) and injected into the LC/MS/MS system. Both methods used for homogenization gave similar results showing that the extraction efficiency was similar for both methods.
# Individual plasma and brain levels and brain plasma ratio after oral administration (30 mg/kg) of CR 4056 suspension to male Sprague Dawley rats in fasted conditions (rats were scarified 60 minutes after the PO administration) are shown in the following table.
# [3] = tested on: IL-1β; assay: IL-1β gene expression in IL-1β-stimulated U373 MG astrocytoma cells (RT-PCR); type: cell-based, human; details: IL-1β 2 ng/ml
# Description: (§1) A model of astrocytes, the human glioblastoma astrocytoma cell line U373 MG (Uppsala), was used for these experiments. Adherent cells were grown in DMEM medium supplemented with 10% FBS at 37° C. with CO2. 72 hours after plating, cells were treated for 1 h with 2-phenyl-6-(1H-imidazol-1-yl)quinazoline (CR4056) (10 μM) prepared according to EP2066653 and then stimulated with the pro-inflammatory cytokine IL-1β (2 ng/mL) for further 6 and 24 h.
# (§2) At the end of incubation period, total RNA was obtained and retro-transcribed using the High-Capacity cDNA Reverse Transcription Kit (Thermo Fisher Scientific). The levels of expression of COX-2, IL-1β, IL-6 and TNFα were evaluated by RT-PCR analysis, performed using the Applied Biosystems 7500 Fast Real-Time PCR System using specific TaqMan assays and, as an endogenous control, the 18S Pre-Developed TaqMan® Assay (Thermo Fisher Scientific). The data analysis, with normalisation on 18S amplified values, was according to Thermo Fisher Scientific specific instructions for gene expression relative quantification. All individual data were the result of at least three different measurements for each sample.
# (§3) Percentage of gene expression inhibition observed in U373 cells stimulated with IL-1β 2 ng/ml and exposed to 10 μM CR4056 for the indicated time.
# [4] = tested on: TNFα; assay: TNFα gene expression in IL-1β-stimulated U373 MG astrocytoma cells (RT-PCR); type: cell-based, human; details: IL-1β 2 ng/ml
# Description: as §1, §2, §3
# [5] = individual male Sprague Dawley rats, 1 h
smiles,measurement,setting,value
"c1ccc(-c2ncc3cc(-n4ccnc4)ccc3n2)cc1 [CR4056, 2-phenyl-6-(1H-imidazol-1-yl)quinazoline]","Time of exploration of the new object in testing phase, novel object recognition",[1],increased the time of exploration of the new object
same,Brain/plasma ratio,[2]; [5],12.4 and 11.4
same,Mean Brain Concentration,[2]; [5],35492 ng/g and 27745 ng/g
same,Plasmatic Concentration,[2]; [5],2860 ng/mL and 2430 ng/mL
same,concentration at 1 h,"[2]; brain, individual male Sprague Dawley rats, read-out: Mean Brain Concentration",33600 ng/g
same,concentration at 1 h,"[2]; brain, male Sprague Dawley rats, read-out: Mean Brain Concentration, mean of 3 rats",32300 ng/g
same,Kp at 1 h,"[2]; individual male Sprague Dawley rats, read-out: Brain/plasma ratio",11.7
same,Kp at 1 h,"[2]; male Sprague Dawley rats, read-out: Brain/plasma ratio, mean of 3 rats",11.8
same,concentration at 1 h,"[2]; plasma, individual male Sprague Dawley rats, read-out: Plasmatic Concentration",2860 ng/mL
same,concentration at 1 h,"[2]; plasma, male Sprague Dawley rats, read-out: Plasmatic Concentration, mean of 3 rats",2720 ng/mL
same,"Percentage of gene expression inhibition, IL-1β","[3]; 10 μM CR4056, 6 h",20%
same,"Percentage of gene expression inhibition, IL-1β","[3]; 10 μM CR4056, 24 h",29%
same,"Percentage of gene expression inhibition, TNF-α","[4]; 10 μM CR4056, 6 h",not yet modulated
same,"Percentage of gene expression inhibition, TNF-α","[4]; 10 μM CR4056, 24 h",52%
